Source: US20240148672A1, “ORAL THIN FILM” (LTS LOHMANN THERAPIE-SYSTEME AG, priority 2021, published 2024)
Where a name gives a salt, the structure may show the parent alone.

Columns and labels:
[1] = pH value of oral thin film dissolved in demineralised water; type: physicochemical; settings: Measured as dissolved OTF in demineralised water temperature-controlled to 32° C. (blank value pH 7.12)
Method: Oral thin films of the composition according to Table 1 were prepared as follows. The active ingredient or the active ingredient mixture was presented and an aqueous solution of the matrix polymer was added. The remaining ingredients were then stirred in. The solution was spread and dried in order to obtain an oral thin film.

[2] = (S)-ketamine versus (R) form; cited from earlier work

| SMILES | pH-value [1] | analgesic and anaesthetic potency relative to the (R) form [2] |
| --- | --- | --- |
| CNC1(c2ccccc2Cl)CCCCC1=O (centres unmarked) [ketamine hydrochloride] | 5.32 |  |
| CNC1(c2ccccc2Cl)CCCCC1=O (racemic) [(S)-ketamine, (S)-(±)-2-(2-chlorophenyl)-2-(methylamino)cyclohexan-1-one] |  | approximately three times higher |
